# Laboratory results published in patent US20200017495A1, “NOVEL HETEROCYCLIC COMPOUNDS AND THEIR USE IN PREVENTING OR TREATING BACTERIAL INFECTIONS” (priority 2017, published 2020).
# Like-named read-outs stand apart in the source and are kept apart here.
# What was measured:
# Test in all cases: MIC of compounds alone and combined with antibacterials, broth microdilution (CLSI)
# Assay type in all cases: cell-based
# [1] = tested on: Citrobacter koseri (CKR) isolates; conditions: Citrobacter koseri, alone, read-out: MIC
# How it was run: (§1)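 Broth microdilution in cation-adjusted Mueller-Hinton broth, inoculum 5.10^5 CFU/mL, 16-20 h at 35° C in ambient air, on genotyped isolates. Compound MIC, alone or with an antibacterial, taken visually as lowest concentration preventing growth; antibacterial MIC determined at each compound concentration.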
# [2] = tested on: Enterobacter cloacae (ECL) isolates; conditions: Enterobacter cloacae, read-out: MIC
# How it was run: as §1
# [3] = tested on: Escherichia coli (ECO) isolates; conditions: Escherichia coli, read-out: MIC
# How it was run: as §1
# [4] = tested on: Providencia rettgeri (PRE) isolates; conditions: Providencia rettgeri, read-out: MIC
# How it was run: as §1
compound,measurement,setting,value
O=C1N2CC(c3ncco3)=CC(C2)N1OC(F)(F)C(=O)[O-].[Li+] (stereo not drawn) [AF2],MIC,[1]; CKO ROU,16 µg/mL
same,MIC,[1]; CKO UFR149,16 µg/mL
same,MIC,[1]; CKO UFR150,> 32 µg/mL
same,MIC,"[2]; ECL 190408, alone",4 µg/mL
same,MIC,"[2]; ECL HAN, alone",32 µg/mL
same,MIC,"[2]; ECL NEM146383, alone",32 µg/mL
same,MIC,"[2]; ECL P99, alone",8 µg/mL
same,MIC,"[2]; ECL UFR12, alone",16 µg/mL
same,MIC,"[2]; ECL UFR13, alone",16 µg/mL
same,MIC,"[2]; ECL UFR14, alone",16 µg/mL
same,MIC,"[2]; ECL UFR38, alone",8 µg/mL
same,MIC,"[2]; ECL UFR51, alone",8 µg/mL
same,MIC,"[2]; ECL UFR60, alone",16 µg/mL
same,MIC,"[2]; ECL UFR70, alone",8 µg/mL
same,MIC,"[2]; ECL UFR84, alone",32 µg/mL
same,MIC,"[2]; ECL UFR85, alone",8 µg/mL
same,MIC,"[2]; ECL UFR200, alone",32 µg/mL
same,MIC,"[2]; strain ECL UFR192, compound alone",16 µg/mL
same,MIC,"[2]; strain ECL UFR193, compound alone",16 µg/mL
same,MIC,"[2]; strain ECL UFR194, compound alone",8 µg/mL
same,MIC,"[2]; strain ECL UFR195, compound alone",16 µg/mL
same,MIC,"[2]; strain ECL UFR196, compound alone",16 µg/mL
same,MIC,"[2]; strain ECL UFR197, compound alone",8 µg/mL
same,MIC,"[2]; strain ECL UFR198, compound alone",32 µg/mL
same,MIC,"[2]; strain ECL UFR203, compound alone",32 µg/mL
same,MIC,"[2]; strain ECL UFR214, compound alone",32 µg/mL
same,MIC,"[2]; strain ECL UFR252PT, compound alone",> 32 µg/mL
same,MIC,"[3]; ECO 4133, alone",8 µg/mL
same,MIC,"[3]; ECO 5302, alone",4 µg/mL
same,MIC,"[3]; ECO 131119, alone",4 µg/mL
same,MIC,"[3]; ECO 180070, alone",8 µg/mL
same,MIC,"[3]; ECO 190314, alone",8 µg/mL
same,MIC,"[3]; ECO 190317, alone",4 µg/mL
same,MIC,"[3]; ECO 190457, alone",4 µg/mL
same,MIC,"[3]; ECO 190549, alone",4 µg/mL
same,MIC,"[3]; ECO 200159, alone",4 µg/mL
same,MIC,"[3]; ECO 200259, alone",4 µg/mL
same,MIC,"[3]; ECO 200344, alone",8 µg/mL
same,MIC,"[3]; ECO 260096, alone",16 µg/mL
same,MIC,"[3]; ECO 260304, alone",4 µg/mL
same,MIC,"[3]; ECO 260508, alone",8 µg/mL
same,MIC,"[3]; ECO (strain number on grid row 356, not shown), alone",8 µg/mL
same,MIC,"[3]; ECO UFR17, alone",16 µg/mL
same,MIC,"[3]; ECO UFR18, alone",8 µg/mL
same,MIC,"[3]; ECO UFR19, alone",8 µg/mL
same,MIC,"[3]; ECO UFR32, alone",8 µg/mL
same,MIC,"[3]; ECO UFR39, alone",8 µg/mL
same,MIC,"[3]; ECO UFR41, alone",8 µg/mL
same,MIC,"[3]; ECO UFR45, alone",4 µg/mL
same,MIC,"[3]; ECO UFR52, alone",32 µg/mL
same,MIC,"[3]; ECO UFR61O, alone",8 µg/mL
same,MIC,"[3]; ECO UFR62, alone",8 µg/mL
same,MIC,"[3]; ECO UFR74, alone",8 µg/mL
same,MIC,"[3]; ECO UFR86, alone",16 µg/mL
same,MIC,"[3]; ECO UFR174, alone",2 µg/mL
same,MIC,"[3]; ECO UFR176, alone",8 µg/mL
same,MIC,"[3]; ECO UFR184, alone",4 µg/mL
same,MIC,"[3]; ECO UFR208, alone",16 µg/mL
same,MIC,"[3]; ECO UFR209, alone",8 µg/mL
same,MIC,"[3]; ECO UFR210, alone",4 µg/mL
same,MIC,"[3]; ECO UFR211, alone",4 µg/mL
same,MIC,"[3]; ECO UFR212, alone",4 µg/mL
same,MIC,"[3]; ECO URF20, alone",4 µg/mL
same,MIC,"[3]; strain ECO UFR177, compound alone",4 µg/mL
same,MIC,"[3]; strain ECO UFR178, compound alone",8 µg/mL
same,MIC,"[3]; strain ECO UFR179, compound alone",4 µg/mL
same,MIC,"[3]; strain ECO UFR180, compound alone",4 µg/mL
same,MIC,"[3]; strain ECO UFR181, compound alone",16 µg/mL
same,MIC,"[3]; strain ECO UFR182, compound alone",8 µg/mL
same,MIC,"[3]; strain ECO UFR183, compound alone",32 µg/mL
same,MIC,"[3]; strain ECO UFR186, compound alone",8 µg/mL
same,MIC,"[3]; strain ECO UFR187, compound alone",16 µg/mL
same,MIC,"[3]; strain ECO UFR189, compound alone",4 µg/mL
same,MIC,"[3]; strain ECO UFR190, compound alone",8 µg/mL
same,MIC,"[3]; strain ECO UFR191, compound alone",8 µg/mL
same,MIC,"[3]; strain ECO UFR204, compound alone",8 µg/mL
same,MIC,"[3]; strain ECO UFR205, compound alone",8 µg/mL
same,MIC,"[3]; strain ECO UFR206, compound alone",16 µg/mL
same,MIC,"[3]; strain ECO UFR252GO, compound alone",8 µg/mL
same,MIC,"[3]; strain ECO UFR255, compound alone",4 µg/mL
same,MIC,"[4]; PRE UFR99, alone",16 µg/mL
same,MIC,"[4]; strain PRE UFR96, compound alone",8 µg/mL
same,MIC,"[4]; strain PRE UFR97, compound alone",> 32 µg/mL
same,MIC,"[4]; strain PRE UFR236, compound alone",32 µg/mL
